Like-named read-outs stand apart in the source and are kept apart here.
Tests used:
VEGFR-2 = VEGFR-2 (Homo sapiens, UniProt P35968); assay: ADP-Glo kinase inhibition assay, VEGFR-2; format: biochemical; settings: read-out: VEGFR-2 inhibitory activity (IC50)
Procedure: (§1) Tyrosine kinase inhibition were tested by luminescent ADP-Glo^TM assay.
(§2) The kinase assay was performed in duplicate in a reaction mixture of final volume of 10 μL. […] The assay plate was incubated at 30 °C for 1 h. After the plate was cooled at room temperature for 5 min, 5 μL of ADP-Glo reagent was added into each well to stop the reaction and consume the remaining […] within 40 min. At the end, 10 μL of kinase detection reagent was added into the well and incubated for 30 min to produce a luminescence signal. […] The assay plate was incubated at 30 °C for 4 h. After the plate was cooled at room temperature for 5 min, 5 μL of ADP-Glo reagent was added into each well to stop the reaction and consume the remaining […] within 1 h. At the end, 10 μL of kinase detection reagent was added into the well and incubated for 30 min to produce a luminescence signal. The luminescence was read by VICTOR-X multi- label plate reader. The signal was correlated with the amount of […] present in the reaction and was […] with the kinase activity.

TIE-2 = TIE-2 (Homo sapiens, UniProt Q02763); assay: ADP-Glo kinase inhibition assay, TIE-2; format: biochemical
Procedure: as §1, §2

EphB4 = molecular target: T1, EphB4 (Homo sapiens, UniProt P54760); assay: ADP-Glo kinase inhibition assay, EphB4; format: biochemical; settings: read-out: EphB4 inhibitory activity (IC50)
T1 sequence (P54760 16-987): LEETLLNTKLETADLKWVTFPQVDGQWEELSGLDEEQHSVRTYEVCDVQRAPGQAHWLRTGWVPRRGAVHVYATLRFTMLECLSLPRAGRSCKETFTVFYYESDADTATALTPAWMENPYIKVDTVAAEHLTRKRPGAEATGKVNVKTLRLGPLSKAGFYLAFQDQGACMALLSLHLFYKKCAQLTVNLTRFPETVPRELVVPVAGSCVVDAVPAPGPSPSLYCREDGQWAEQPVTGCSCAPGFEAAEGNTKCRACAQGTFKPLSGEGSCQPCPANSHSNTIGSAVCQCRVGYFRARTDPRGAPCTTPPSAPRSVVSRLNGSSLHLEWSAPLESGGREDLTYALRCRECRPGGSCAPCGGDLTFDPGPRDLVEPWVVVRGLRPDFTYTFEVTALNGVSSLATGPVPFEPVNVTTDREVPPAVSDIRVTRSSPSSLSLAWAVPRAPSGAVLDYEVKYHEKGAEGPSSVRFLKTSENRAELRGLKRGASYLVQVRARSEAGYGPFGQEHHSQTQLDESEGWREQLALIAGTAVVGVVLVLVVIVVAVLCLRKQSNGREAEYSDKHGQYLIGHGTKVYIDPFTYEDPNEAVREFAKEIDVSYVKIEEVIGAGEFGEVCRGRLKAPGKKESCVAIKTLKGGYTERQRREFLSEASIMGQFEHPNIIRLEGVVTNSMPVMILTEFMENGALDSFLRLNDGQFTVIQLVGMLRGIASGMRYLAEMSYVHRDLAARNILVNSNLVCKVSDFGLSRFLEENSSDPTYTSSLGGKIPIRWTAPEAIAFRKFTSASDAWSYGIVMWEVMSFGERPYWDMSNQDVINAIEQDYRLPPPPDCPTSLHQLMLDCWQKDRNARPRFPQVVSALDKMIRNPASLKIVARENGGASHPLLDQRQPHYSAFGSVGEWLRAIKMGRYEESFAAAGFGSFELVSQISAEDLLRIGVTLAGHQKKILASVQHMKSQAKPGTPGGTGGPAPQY
Procedure: as §1, §2

EA.hy926 = assay: MTT anti-proliferative assay against human vascular endothelial cell; format: cell-based; settings: EA.hy 926, 48 h treatment
Procedure: Growth inhibitory activities were evaluated against human vascular endothelial cell (EA.hy926)[25]. Thirteen selected title compounds were tested using MTT assay to assess cell proliferation. Exponentially growing cells were harvested and plated in 96-well plates at a concentration of […] cells/well, and then incubated for 24 h at 37 °C. The cells were treated with title compounds respectively at various concentrations for 48 h. Then, […] fresh MTT (5 mg/mL) was added to each well and incubated for 4 h at 37 °C. Supernatant was discarded, and […] DMSO was added to each well. Absorbance values were determined by a microplate reader (Bio-Rad Instruments) at 490 nm. The IC50 values were calculated according to inhibition ratios.

B-Raf = B-Raf (Homo sapiens, UniProt P15056); assay: Kinase selectivity assay, B-Raf; format: biochemical; settings: Table 3 selectivity profile
FGFR-1 = FGFR-1 (Homo sapiens, UniProt P11362); assay: Kinase selectivity assay, FGFR-1; format: biochemical; settings: Table 3 selectivity profile
EGFR = EGFR (Homo sapiens, UniProt P00533); assay: Kinase selectivity assay, EGFR; format: biochemical; settings: Table 3 selectivity profile
Src = Src (Homo sapiens, UniProt P12931); assay: Kinase selectivity assay, Src; format: biochemical; settings: Table 3 selectivity profile
[1] = Table 2, ATP 50 μM, read-out: TIE-2 inhibitory activity (IC50)
[2] = Table 1, ATP 50 μM, read-out: Tie-2 inhibitory activity (IC50)

Sequence of TIE-2 (Q02763 23-1124): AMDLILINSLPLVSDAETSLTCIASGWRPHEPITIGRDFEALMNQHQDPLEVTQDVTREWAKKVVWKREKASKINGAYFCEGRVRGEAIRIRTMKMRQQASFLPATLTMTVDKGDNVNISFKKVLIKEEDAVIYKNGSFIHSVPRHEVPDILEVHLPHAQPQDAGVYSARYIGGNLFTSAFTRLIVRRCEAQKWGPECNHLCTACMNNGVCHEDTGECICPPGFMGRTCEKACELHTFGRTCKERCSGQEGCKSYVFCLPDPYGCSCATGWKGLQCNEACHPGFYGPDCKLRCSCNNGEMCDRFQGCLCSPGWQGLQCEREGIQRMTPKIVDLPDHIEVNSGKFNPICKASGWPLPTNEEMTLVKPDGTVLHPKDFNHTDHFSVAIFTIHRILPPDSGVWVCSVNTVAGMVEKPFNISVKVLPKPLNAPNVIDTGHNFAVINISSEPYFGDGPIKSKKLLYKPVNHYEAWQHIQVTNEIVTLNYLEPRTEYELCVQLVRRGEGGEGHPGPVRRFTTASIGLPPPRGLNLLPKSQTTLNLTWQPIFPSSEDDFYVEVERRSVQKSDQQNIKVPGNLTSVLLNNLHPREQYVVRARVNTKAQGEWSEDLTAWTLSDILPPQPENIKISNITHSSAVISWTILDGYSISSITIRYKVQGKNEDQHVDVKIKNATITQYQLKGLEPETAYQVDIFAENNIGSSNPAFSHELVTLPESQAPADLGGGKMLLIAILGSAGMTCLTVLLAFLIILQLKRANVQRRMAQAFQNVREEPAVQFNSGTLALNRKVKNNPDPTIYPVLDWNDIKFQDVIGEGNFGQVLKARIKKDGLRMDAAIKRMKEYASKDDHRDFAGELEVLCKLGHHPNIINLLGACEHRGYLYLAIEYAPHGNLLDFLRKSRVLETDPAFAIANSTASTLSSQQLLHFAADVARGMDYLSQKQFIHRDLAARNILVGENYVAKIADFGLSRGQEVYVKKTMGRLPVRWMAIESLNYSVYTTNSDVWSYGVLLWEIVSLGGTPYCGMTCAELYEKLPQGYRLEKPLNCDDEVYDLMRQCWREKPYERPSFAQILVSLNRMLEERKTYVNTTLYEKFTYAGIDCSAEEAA
Sequence of VEGFR-2 (P35968 20-1356): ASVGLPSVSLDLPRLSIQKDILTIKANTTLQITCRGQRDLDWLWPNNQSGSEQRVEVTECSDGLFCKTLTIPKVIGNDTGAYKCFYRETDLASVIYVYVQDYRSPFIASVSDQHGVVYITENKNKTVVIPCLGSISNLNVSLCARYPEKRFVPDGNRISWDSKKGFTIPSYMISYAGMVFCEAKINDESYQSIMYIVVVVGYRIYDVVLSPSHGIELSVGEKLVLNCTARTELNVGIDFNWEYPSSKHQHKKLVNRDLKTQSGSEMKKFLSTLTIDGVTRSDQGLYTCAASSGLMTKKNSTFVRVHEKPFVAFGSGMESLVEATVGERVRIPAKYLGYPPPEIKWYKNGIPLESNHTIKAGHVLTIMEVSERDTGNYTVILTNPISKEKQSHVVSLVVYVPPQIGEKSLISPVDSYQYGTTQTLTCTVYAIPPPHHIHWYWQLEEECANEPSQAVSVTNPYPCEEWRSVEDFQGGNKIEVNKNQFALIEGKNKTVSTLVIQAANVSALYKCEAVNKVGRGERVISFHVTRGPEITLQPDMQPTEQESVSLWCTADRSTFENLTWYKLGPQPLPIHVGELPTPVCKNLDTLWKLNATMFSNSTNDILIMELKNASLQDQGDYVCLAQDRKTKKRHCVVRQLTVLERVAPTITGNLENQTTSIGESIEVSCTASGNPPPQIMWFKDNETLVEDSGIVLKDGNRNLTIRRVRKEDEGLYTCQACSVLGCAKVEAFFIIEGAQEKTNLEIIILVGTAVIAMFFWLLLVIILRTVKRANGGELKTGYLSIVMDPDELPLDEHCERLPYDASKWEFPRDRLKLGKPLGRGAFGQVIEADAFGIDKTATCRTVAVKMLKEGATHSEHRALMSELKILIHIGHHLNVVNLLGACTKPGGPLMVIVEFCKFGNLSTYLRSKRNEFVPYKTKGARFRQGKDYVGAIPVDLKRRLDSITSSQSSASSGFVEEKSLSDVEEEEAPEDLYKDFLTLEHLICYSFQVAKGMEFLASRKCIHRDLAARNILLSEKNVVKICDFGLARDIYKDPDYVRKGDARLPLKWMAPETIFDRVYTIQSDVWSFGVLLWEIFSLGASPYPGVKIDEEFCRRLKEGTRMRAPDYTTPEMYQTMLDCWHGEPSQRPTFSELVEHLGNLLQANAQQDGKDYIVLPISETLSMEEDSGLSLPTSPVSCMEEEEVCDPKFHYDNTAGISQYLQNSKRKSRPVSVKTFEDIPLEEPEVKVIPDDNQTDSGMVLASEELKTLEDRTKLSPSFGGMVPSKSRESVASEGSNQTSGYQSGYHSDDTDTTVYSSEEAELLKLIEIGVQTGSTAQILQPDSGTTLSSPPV
Sequence of B-Raf (P15056 whole entry, species assumed): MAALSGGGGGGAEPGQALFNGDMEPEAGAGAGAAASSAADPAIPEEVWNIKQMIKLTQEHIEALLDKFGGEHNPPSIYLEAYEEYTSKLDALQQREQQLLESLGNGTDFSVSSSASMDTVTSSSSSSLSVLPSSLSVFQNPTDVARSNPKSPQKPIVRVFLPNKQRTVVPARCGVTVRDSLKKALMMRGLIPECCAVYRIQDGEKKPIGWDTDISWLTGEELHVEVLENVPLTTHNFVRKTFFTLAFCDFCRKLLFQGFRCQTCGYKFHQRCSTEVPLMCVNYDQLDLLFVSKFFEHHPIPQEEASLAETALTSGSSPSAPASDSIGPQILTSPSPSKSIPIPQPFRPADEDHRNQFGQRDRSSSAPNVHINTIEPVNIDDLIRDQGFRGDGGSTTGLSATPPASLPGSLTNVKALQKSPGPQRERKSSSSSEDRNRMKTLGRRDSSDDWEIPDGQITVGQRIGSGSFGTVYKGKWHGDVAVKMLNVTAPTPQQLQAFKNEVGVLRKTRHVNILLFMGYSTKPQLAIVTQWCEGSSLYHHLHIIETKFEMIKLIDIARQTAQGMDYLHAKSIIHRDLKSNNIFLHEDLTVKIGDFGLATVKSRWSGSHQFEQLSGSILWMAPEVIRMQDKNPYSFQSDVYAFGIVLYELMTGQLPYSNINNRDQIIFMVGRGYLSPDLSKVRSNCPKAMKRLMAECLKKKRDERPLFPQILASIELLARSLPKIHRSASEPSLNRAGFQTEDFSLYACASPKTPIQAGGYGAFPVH
Sequence of Src (P12931 whole entry, species assumed): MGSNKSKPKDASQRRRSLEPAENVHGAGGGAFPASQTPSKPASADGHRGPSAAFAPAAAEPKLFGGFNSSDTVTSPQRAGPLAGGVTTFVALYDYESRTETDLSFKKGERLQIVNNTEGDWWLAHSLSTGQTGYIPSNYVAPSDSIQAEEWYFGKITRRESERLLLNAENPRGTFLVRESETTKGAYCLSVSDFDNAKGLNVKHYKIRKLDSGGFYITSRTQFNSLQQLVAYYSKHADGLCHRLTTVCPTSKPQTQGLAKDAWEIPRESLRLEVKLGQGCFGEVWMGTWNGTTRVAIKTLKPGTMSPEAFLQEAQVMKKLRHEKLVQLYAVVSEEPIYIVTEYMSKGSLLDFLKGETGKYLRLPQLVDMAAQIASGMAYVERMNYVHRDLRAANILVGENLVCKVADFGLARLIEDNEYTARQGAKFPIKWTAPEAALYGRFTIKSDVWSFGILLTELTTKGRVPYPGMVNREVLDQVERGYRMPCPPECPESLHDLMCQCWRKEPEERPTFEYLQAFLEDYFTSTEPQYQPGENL
Sequence of FGFR-1 (P11362 22-822, species assumed): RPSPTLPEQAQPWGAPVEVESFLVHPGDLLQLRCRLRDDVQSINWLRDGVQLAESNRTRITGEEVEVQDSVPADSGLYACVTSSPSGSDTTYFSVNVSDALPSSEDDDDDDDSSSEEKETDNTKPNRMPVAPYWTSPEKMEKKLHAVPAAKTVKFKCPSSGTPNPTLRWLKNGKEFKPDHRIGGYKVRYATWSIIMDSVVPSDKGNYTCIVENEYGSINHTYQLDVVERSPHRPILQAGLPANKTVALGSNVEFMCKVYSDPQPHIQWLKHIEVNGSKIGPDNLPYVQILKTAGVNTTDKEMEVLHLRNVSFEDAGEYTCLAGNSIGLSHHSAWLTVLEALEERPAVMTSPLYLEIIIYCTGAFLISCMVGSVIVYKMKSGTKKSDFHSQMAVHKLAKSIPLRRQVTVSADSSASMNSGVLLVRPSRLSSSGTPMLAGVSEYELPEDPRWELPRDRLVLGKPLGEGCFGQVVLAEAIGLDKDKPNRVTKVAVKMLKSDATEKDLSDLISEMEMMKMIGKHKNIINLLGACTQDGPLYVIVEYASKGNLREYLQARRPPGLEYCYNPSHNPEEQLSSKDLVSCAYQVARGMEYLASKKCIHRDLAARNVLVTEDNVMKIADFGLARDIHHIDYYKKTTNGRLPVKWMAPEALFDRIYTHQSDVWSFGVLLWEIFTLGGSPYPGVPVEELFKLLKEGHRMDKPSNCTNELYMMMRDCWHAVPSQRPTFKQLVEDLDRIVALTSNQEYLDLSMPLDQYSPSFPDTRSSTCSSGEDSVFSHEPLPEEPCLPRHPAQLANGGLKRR

IC50 (VEGFR-2; Table 2, ATP 50 μM)	IC50 (TIE-2; [1])	IC50 (VEGFR-2; Table 1, ATP 50 μM)	IC50 (EphB4; Table 1, ATP 50 μM)	IC50 (TIE-2; [2])	IC50 (EphB4; Table 2, ATP 50 μM)	SMILES	IC50 (EA.hy926)	also measured
		0.00552 µM	> 1 µM	0.0613 µM		O=C(Nc1ccc(-c2ccc(NC(=O)C3CC3)nc2)cc1)Nc1ccc(C(F)(F)F)c(Cl)c1 [CDAU-5]	152 µM	
		0.0233 µM	0.948 µM	0.0329 µM		O=C(Nc1ccc(-c2ccc(NC(=O)C3CC3)nc2)cc1)Nc1cccc(Cl)c1 [CDAU-6]	880 µM	
0.00627 µM	0.0428 µM				0.162 µM	O=C(Nc1ccc(-c2cccc(NC(=O)C3CC3)n2)cc1)Nc1cccc(C(F)(F)F)c1 [CDAU-21]	40.5 µM	
		> 1 µM	> 1 µM	> 1 µM		O=C(Nc1ccc(-c2ccc(NC(=O)C3CC3)nc2)cc1)Nc1ccccc1F [CDAU-7]	46.2 µM	
		0.00142 µM		> 1 µM		O=C(Nc1ccc(-c2ccc(NC(=O)C3CC3)nc2)cc1)Nc1ccc(F)c(F)c1 [CDAU-4]	85 µM	
		> 1 µM	> 1 µM	> 1 µM		O=C(Nc1ccc(OC(F)(F)F)cc1)Nc1ccc(-c2ccc(NC(=O)C3CC3)nc2)cc1 [CDAU-8]		
> 1 µM	> 1 µM				> 1 µM	O=C(Nc1ccc(-c2cccc(NC(=O)C3CC3)n2)cc1)Nc1ccc(Cl)c(C(F)(F)F)c1 [CDAU-12, N-(6-(4-(3-(4-chloro-3-(trifluoromethyl)phenyl)ureido)phenyl)pyridin-2-yl)cyclopropanecarboxamide]		
		0.00111 µM	0.00534 µM	0.0072 µM		O=C(Nc1ccc(-c2ccc(NC(=O)C3CC3)nc2)cc1)Nc1cccc(C(F)(F)F)c1 [CDAU-1, N-(5-(4-(3-(3-(trifluoromethyl)phenyl)ureido)phenyl)pyridin-2-yl)cyclopropanecarboxamide]	16.1 µM	IC50 (B-Raf): 0.0572 µM; IC50 (FGFR-1): 0.155 µM; IC50 (EGFR): 0.204 µM; melting point: 270 to 272 °C; IC50 (Src): > 0.5 µM
> 1 µM	0.271 µM				> 1 µM	Cc1ccc(NC(=O)Nc2ccc(-c3cccc(NC(=O)C4CC4)n3)cc2)cc1Cl [CDAU-13]		
		0.002 µM	> 1 µM	0.0275 µM		O=C(Nc1ccc(-c2ccc(NC(=O)C3CC3)nc2)cc1)Nc1ccc(C(F)(F)F)c(C(F)(F)F)c1 [CDAU-3]	309 µM	melting point: 241 to 243 °C

More lines, now with the values behind:

SMILES	IC50 (VEGFR-2; Table 2, ATP 50 μM)	IC50 (TIE-2; [1])	IC50 (VEGFR-2; Table 1, ATP 50 μM)	IC50 (EphB4; Table 1, ATP 50 μM)	IC50 (TIE-2; [2])	IC50 (EphB4; Table 2, ATP 50 μM)	IC50 (EA.hy926)	also measured
CC(C)(C)c1ccc(NC(=O)Nc2ccc(-c3cccc(NC(=O)C4CC4)n3)cc2)cc1 [CDAU-15]	0.028 µM	> 1 µM						
O=C(Nc1ccc(OC(F)(F)F)cc1)Nc1ccc(-c2cccc(NC(=O)C3CC3)n2)cc1 [CDAU-19]	0.034 µM					> 1 µM	31 µM	
CN(C)C(=O)Nc1ccc(-c2ccc(NC(=O)C3CC3)nc2)cc1 [CDAU-11]			> 1 µM	> 1 µM	> 1 µM			
CC(C)(C)NC(=O)Nc1ccc(-c2ccc(NC(=O)C3CC3)nc2)cc1 [CDAU-9]			> 1 µM	> 1 µM	0.858 µM			
O=C(Nc1ccc(-c2cccc(NC(=O)C3CC3)n2)cc1)Nc1ccc(Cl)cc1Cl [CDAU-20]	0.0427 µM	0.0788 µM					45.7 µM	
O=C(Nc1ccc(-c2cccc(NC(=O)C3CC3)n2)cc1)Nc1ccccc1F [CDAU-23]	> 1 µM	> 1 µM						
O=C(Nc1ccc(-c2cccc(NC(=O)C3CC3)n2)cc1)Nc1cccc(F)c1 [CDAU-24]	> 1 µM	> 1 µM						
O=C(Nc1ccc(-c2cccc(NC(=O)C3CC3)n2)cc1)Nc1ccccc1Cl [CDAU-16]	0.0734 µM	> 1 µM				> 1 µM		
O=C(Nc1ccc(-c2cccc(NC(=O)C3CC3)n2)cc1)Nc1ccc(F)cc1F [CDAU-22]	> 1 µM	> 1 µM						
O=C(Nc1ccc(F)cc1)Nc1ccc(-c2cccc(NC(=O)C3CC3)n2)cc1 [CDAU-14]		0.0329 µM				> 1 µM		
CC(C)c1cccc(NC(=O)Nc2ccc(-c3cccc(NC(=O)C4CC4)n3)cc2)c1 [CDAU-17]	0.063 µM					0.17 µM	133 µM	
CN(C)CCNC(=O)Nc1ccc(-c2ccc(NC(=O)C3CC3)nc2)cc1 [CDAU-10]			> 1 µM	> 1 µM	> 1 µM		> 1000 µM	
O=C(Nc1ccc(-c2cccc(NC(=O)C3CC3)n2)cc1)Nc1cccc(Cl)c1 [CDAU-18]		0.00492 µM				> 1 µM	22.6 µM	
Cc1cccc(C)c1NC(=O)Nc1ccc(-c2cccc(NC(=O)C3CC3)n2)cc1 [CDAU-25]		> 1 µM				> 1 µM		
